Results as given in patent publication US10272056B2, “Treatment for mitochondrial diseases” (The George Washington University a Congressionally …, priority 2015, dated 2019).

Tests used:
PC12-ND6 cells [1] = assay: Neurite outgrowth with dbcAMP; format: cell-based
Experimental: FIG. 13A-13E are images from microscopy and graphs showing that the timing of NaBt treatment is critical for enhancing neuronal differentiation of PC12-ND6 cells upon sub-optimal neurotrophic cues. (A) Confocal micrographs of PC12-ND6 cells treated with dbcAMP alone or with NaBt (5 mM) in a simultaneous or sequential manner. Scale bar represents 5 μm. (B) Graph of neurite length. Mean±SEM (n=50 for each condition; compared to control (no NaBt) *p=0.0001 and **p=0.0009). (C) Confocal micrographs of PC12-ND6 cells treated with sub-optimal NGF concentration (10 ng/ml) alone or first NaBt (5 mM) in a simultaneous or sequential manner. Scale bar represents 10 μm. (D) Graph of average total neurite length. Mean±SEM (n=50 for each condition; compared to control *p=0.0001). (E) Graph of the frequency of total neurite length below and above 90 μm.
The timing of NaBt pre-treatment is critical for enhancing neuronal differentiation of PC12-ND6 cells and potentiating sub-optimal neurotrophic cues. We next investigated whether NaBt-mediated increase of mitochondrial biogenesis could potentiate subsequent sub-optimal neurotrophic cues to trigger effective neurite outgrowth in PC12-ND6 cells and whether a temporal window for NaBt responsiveness might exist. […]

PC12-ND6 cells [2] = assay: Cell viability by live-cell confocal microscopy (Nuclear-ID stain); format: cell-based; settings: 5 mM NaBt, three days
Text: FIG. 4A-4E are images from microscopy and graphs showing NaBt dose-dependent acetylation and cellular toxicity in PC12-ND6 cells and embryonic E17.5 hippocampal neurons. (A) Confocal micrographs of PC12-ND6 cells (referred to as ND6) grown in the absence or presence of NaBt for three days and labeled with an anti-acetylated Lys antibody (AcLys; green). Scale bar represents 10 μm. […] Results are expressed as relative fluorescence intensity±S.D. (n=250 cells per NaBt concentration; * p=0.0001). (C) Effect of NaBt on PC12-ND6 cell viability. […] Mean±SEM (n=250 cells for each experimental condition; * p=0.0001). (D) Confocal micrographs of NaBt dose-dependent acetylation in E17.5 hippocampal neurons (AcLys; green). Scale bar represents 10 μm.
Sodium butyrate increases protein acetylation in a dose-dependent manner without inducing cellular toxicity. A dose response analysis was performed to determine the optimal concentration of sodium butyrate (NaBt) for inducing maximal acetylation levels with minimal cellular toxicity. PC12-ND6 cells were treated with different concentrations of NaBt (2 mM, 5 mM, and 10 mM) for three days before assessing the degree of acetylated lysine residues by immunocytochemistry and cell viability by live-cell confocal microscopy using the Nuclear-ID™ stain.

[3] = test system: E17.5 hippocampal progenitor cells; assay: Neuronal differentiation to stage 3 (β-III tubulin immunostaining); format: cell-based; settings: NaBt 2 mM at 1DIV, read at 3DIV, no glial feeder layer; untreated 20%
Text: FIG. 12A-12B are images from microscopy and a graph showing that NaBt concomitantly increases the mitochondrial biomass of E17.5 hippocampal progenitor cells and their neuronal differentiation. (A) High-resolution tile-stacked confocal micrographs of untreated and NaBt-treated E17.5 hippocampal neurons labeled with β-III tubulin (red) and nuclear counterstain DAPI (blue) at 3DIV with insets showing high magnification of the neuritic network. Scale bar represents 20 μm. (B) Graph of percent of β-III tubulin^+ cells having reached the neuronal stage 3. Mean±S.D. (n=250 cells for each condition; *p=0.0001).
Sodium butyrate-mediated increase in mitochondrial mass correlates with accelerated and enhanced neuronal differentiation of hippocampal progenitor cells. Since broad spectrum HDACis induce neuronal differentiation of adult neural progenitors (reviewed by Lee and Lee, 2010), it was assessed whether increase in mitochondrial mass upon NaBt exposure could accelerate the timing of the neuronal developmental stages of cultured E17.5 hippocampal progenitor cells in the absence of astroglial trophic support. To test this hypothesis, the well-defined chronology of the distinct phenotypic differentiation stages of cultured embryonic hippocampal cells was relied on. […] At 3DIV, cells were immunostained for the pan-neuronal marker β-III tubulin to quantify the percent of cells at stage 3.

[4] = test system: healthy and MELAS fibroblasts; assay: Dose-dependent studies for optimal safe concentrations; format: cell-based, human; settings: three days of treatment
Text: Experimental approaches. Five distinct molecular tools were used to investigate mitochondrial biogenesis: 1) the mitochondrial-specific dyes, MitoTracker® Green (MTG) and MitoTracker® Red (MTR); 2) the mito-GFP or mito-dsRed vector to fluorescently label mitochondria; 3) antibodies against mtDNA, COXVα, or SOD2; 4) the fluorescent PicoGreen® dye labeling mtDNA; and 5) quantitative PCR to determine mtDNA copy number.
(§1) Butyrates rescue the mitochondrial mass, morphology, networking, membrane potential, and cellular ATP levels in MELAS fibroblasts. Skin fibroblasts from two MELAS patients and from a healthy subject as a control were used. Dose-dependent analyses of butyrates to determine their best concentrations for eliciting an optimal mitochondrial response without cellular toxicity was performed. Healthy and MELAS fibroblasts were treated with PBS, NaBt (2.5 mM), TBN (1.5 mM), or AN9 (300 μM) for three days before labeling with the MTG dye for live cell confocal analysis.

MELAS fibroblasts = assay: Morphometric analysis of mitochondrial connectivity (Image J); format: cell-based, human; settings: Image J analysis of MTG-labeled fibroblasts
Experimental: FIG. 18 is a graph showing that butyrate and its derivatives rescue the mitochondrial dynamics and connectivity in MELAS fibroblasts.
as §1, with “networking, and” for “networking,”, “potential” for “potential, and cellular ATP levels”, “butyrates was performed” for “butyrates”, “toxicity.” for “toxicity was performed.”

`CCCC(=O)[O-].[Na+]` [NaBt, sodium butyrate] was tested, and the neuritogenesis upon co-addition (PC12-ND6 cells [1]; NaBt 5 mM and dbcAMP 1 mM added together) was “severely dampened”, the neurite length (PC12-ND6 cells [1]; NaBt pre-treatment three days at highest dose, then dbcAMP 1 mM 24 hours) was 50 μm and the cell death (PC12-ND6 cells [2]) was “negligible cell death”. For the same compound, the “percent of neurons advanced to stage 3” value [3] was 90%, the “optimal safe concentration for eliciting maximal mitochondrial biogenesis without cellular toxicity” value [4] was 2.5 mM and the connectivity among mitochondria (MELAS fibroblasts) was “rescue the connectivity among mitochondria”.
